Measured values published in patent publication US8222247B2, “Modulators of glucocorticoid receptor, AP-1, and/or NF-kappabeta activity and use thereof” (Bristol-Myers Squibb Company, priority 2006, dated 2012).

What follows are compounds tested against T1, human glucocorticoid receptor (Homo sapiens, UniProt P04150) (assay: Glucocorticoid Receptor Binding Assay (I), fluorescence polarization competitor kit). Settings: purified human recombinant full-length GR, Fluormone GS Red.
T1 construct: purified human recombinant full-length glucocorticoid receptor (2 nM); purchased Invitrogen Part #2893
T1 sequence (P04150 1-777): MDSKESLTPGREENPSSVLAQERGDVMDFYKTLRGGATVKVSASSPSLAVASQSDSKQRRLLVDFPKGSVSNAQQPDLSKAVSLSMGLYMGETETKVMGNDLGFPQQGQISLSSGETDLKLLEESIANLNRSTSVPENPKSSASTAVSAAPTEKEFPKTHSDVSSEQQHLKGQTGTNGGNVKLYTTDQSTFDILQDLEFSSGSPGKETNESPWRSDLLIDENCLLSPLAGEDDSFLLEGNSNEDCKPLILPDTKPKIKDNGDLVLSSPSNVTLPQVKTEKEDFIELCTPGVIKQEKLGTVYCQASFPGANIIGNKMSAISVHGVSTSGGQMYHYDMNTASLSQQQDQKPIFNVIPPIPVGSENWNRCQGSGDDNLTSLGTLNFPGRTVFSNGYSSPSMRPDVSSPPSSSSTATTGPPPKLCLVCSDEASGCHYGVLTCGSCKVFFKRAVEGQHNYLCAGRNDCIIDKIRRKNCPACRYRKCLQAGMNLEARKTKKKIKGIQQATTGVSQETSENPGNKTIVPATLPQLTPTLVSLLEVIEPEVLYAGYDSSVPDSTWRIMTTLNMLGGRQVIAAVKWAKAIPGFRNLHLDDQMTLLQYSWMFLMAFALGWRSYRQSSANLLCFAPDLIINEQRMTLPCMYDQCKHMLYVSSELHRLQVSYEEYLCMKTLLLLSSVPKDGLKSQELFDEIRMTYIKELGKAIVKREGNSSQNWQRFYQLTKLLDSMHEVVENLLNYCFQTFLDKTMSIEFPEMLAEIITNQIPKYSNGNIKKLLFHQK
Protocol: Glucocorticoid Receptor Binding Assay (I)^a
In order to assess the affinity of test compounds for the human glucocorticoid receptor, a commercially available kit was used (Glucocorticoid Receptor Competitor Assay Kit, Invitrogen Part #2893). Briefly, purified human recombinant full-length glucocorticoid receptor (2 nM) was mixed with fluorescently labeled glucocorticoid (1 nM Fluormone GS Red) in the presence or absence of test compound. After two hour incubation at room temperature in the dark, the fluorescence polarization (FP) of the samples was measured. The FP of a mixture of receptor, fluorescent probe (i.e. Fluormone GS Red) and 5 μM dexamethasone represented background fluorescence or 100% inhibition, whereas, the FP of the mixture without dexamethasone (but in the presence of vehicle) was taken to be 100% binding. The percentage inhibition of test compounds were then compared to the sample with 5 μM dexamethasone and expressed as % relative binding activity with dexamethasone being 100% and no inhibition is 0%. Test compounds were analyzed in the concentration range from 8.5E-05 μM to 5 μM.

SMILES	Ki
COC(=O)c1ccc(-c2ccc(C(c3ccccc3)C(C)(C)C(=O)Nc3nncs3)s2)cc1F (centres unmarked) [Example 53, methyl 4-(5-(2,2-dimethyl-3-oxo-1-phenyl-3-(1,3,4-thiadiazol-2-ylamino)propyl)-2-thienyl)-2-fluorobenzoate]	152 nM
CC(C)(C(=O)Nc1nncs1)C(c1ccccc1)c1ccc(-c2ccc(C(=O)N3CCC(F)(F)CC3)cc2)s1 (centres unmarked) [Example 55, 3-(5-(4-((4,4-Difluoro-1-piperidinyl)carbonyl)phenyl)-2-thienyl)-2,2-dimethyl-3-phenyl-N-1,3,4-thiadiazol-2-ylpropanamide]	36.8 nM
CC(C)(C(=O)Nc1nncs1)[C@H](c1cccc(F)c1)c1ccc(Br)s1 [Example 56, (3S)-3-(5-bromo-2-thienyl)-3-(3-fluorophenyl)-2,2-dimethyl-N-1,3,4-thiadiazol-2-ylpropanamide]	1.21 nM
CC(C)(C(=O)Nc1nncs1)[C@@H](c1cccc(F)c1)c1ccc(Br)s1 [Example 57, (3R)-3-(5-bromo-2-thienyl)-3-(3-fluorophenyl)-2,2-dimethyl-N-1,3,4-thiadiazol-2-ylpropanamide]	2.39 nM
CC(C)(C(=O)Nc1nncs1)[C@H](c1cccc(F)c1)c1ccc(-c2ccc(C(=O)N3CCOCC3)cc2)s1 [Example 59, (3S)-3-(3-fluorophenyl)-2,2-dimethyl-3-(5-(4-(4-morpholinylcarbonyl)phenyl)-2-thienyl)-N-1,3,4-thiadiazol-2-ylpropanamide]	66.9 nM
CN(C)C(=O)c1ccc(-c2ccc([C@@H](c3cccc(F)c3)C(C)(C)C(=O)Nc3nncs3)s2)cc1Cl [Example 60, 2-chloro-4-(5-((1S)-1-(3-fluorophenyl)-2,2-dimethyl-3-oxo-3-(1,3,4-thiadiazol-2-ylamino)propyl)-2-thienyl)-N,N-dimethylbenzamide]	161 nM
CC(C)(C(=O)Nc1nncs1)[C@H](c1cccc(F)c1)c1ccc(-c2ccc(C(=O)N3CCOCC3)c(Cl)c2)s1 [Example 61, (3S)-3-(5-(3-chloro-4-(4-morpholinylcarbonyl)phenyl)-2-thienyl)-3-(3-fluorophenyl)-2,2-dimethyl-N-1,3,4-thiadiazol-2-ylpropanamide]	101 nM
CC(C)(C(=O)Nc1nncs1)[C@H](c1cccc(F)c1)c1ccc(-c2ccc(C(=O)O)c(F)c2)s1 [Example 63, 2-fluoro-4-(5-((1S)-1-(3-fluorophenyl)-2,2-dimethyl-3-oxo-3-(1,3,4-thiadiazol-2-ylamino)propyl)-2-thienyl)benzoic acid]	565 nM
CC(C)(C(=O)Nc1nncs1)[C@@H](c1cccc(F)c1)c1ccc(-c2ccc(C(=O)N3CCCCC3)cc2)s1 [Example 71, (3R)-3-(3-fluorophenyl)-2,2-dimethyl-3-(5-(4-(1-piperidinylcarbonyl)phenyl)-2-thienyl)-N-1,3,4-thiadiazol-2-ylpropanamide]	1.51 nM
CC(C)(C(=O)Nc1nncs1)[C@@H](c1cccc(F)c1)c1ccc(-c2ccc(C(N)=O)cc2)s1 [Example 74, 4-(5-((1R)-1-(3-fluorophenyl)-2,2-dimethyl-3-oxo-3-(1,3,4-thiadiazol-2-ylamino)propyl)-2-thienyl)benzamide]	2.24 nM
CC(C)(C)NC(=O)c1ccc(-c2ccc([C@H](c3cccc(F)c3)C(C)(C)C(=O)Nc3nncs3)s2)cc1 [Example 76, N-tert-butyl-4-(5-((1R)-1-(3-fluorophenyl)-2,2-dimethyl-3-oxo-3-(1,3,4-thiadiazol-2-ylamino)propyl)-2-thienyl)benzamide]	27 nM
CC(C)(C(=O)Nc1nncs1)[C@@H](c1cccc(F)c1)c1ccc(-c2ccc(C(=O)NC3CC3)cc2)s1 [Example 77, N-cyclopropyl-4-(5-((1R)-1-(3-fluorophenyl)-2,2-dimethyl-3-oxo-3-(1,3,4-thiadiazol-2-ylamino)propyl)-2-thienyl)benzamide]	4.19 nM
CC(C)(C(=O)Nc1nncs1)[C@@H](c1cccc(F)c1)c1ccc(-c2ccc(C(=O)O)c(F)c2)s1 [Example 78, 2-fluoro-4-(5-((1R)-1-(3-fluorophenyl)-2,2-dimethyl-3-oxo-3-(1,3,4-thiadiazol-2-ylamino)propyl)-2-thienyl)benzoic acid]	24.5 nM

Second part, the compound after the results:

Ki	SMILES
11.7 nM	CC(C)(C(=O)Nc1nncs1)C(c1ccccc1)c1ccc(-c2ccc(C(=O)N3CCCCC3)cc2)s1 (centres unmarked) [Example 46, 2,2-dimethyl-3-phenyl-3-(5-(4-(1-piperidinylcarbonyl)phenyl)-2-thienyl)-N-1,3,4-thiadiazol-2-ylpropanamide]
17.4 nM	CCN(CC)C(=O)c1ccc(-c2ccc(C(c3ccccc3)C(C)(C)C(=O)Nc3nncs3)s2)cc1Cl (centres unmarked) [Example 48, 2-chloro-4-(5-(2,2-dimethyl-3-oxo-1-phenyl-3-(1,3,4-thiadiazol-2-ylamino)propyl)-2-thienyl)-N,N-diethylbenzamide]
3.58 nM	CCN(CC)C(=O)c1ccc(-c2ccc(C(c3ccccc3)C(C)(C)C(=O)Nc3nncs3)s2)cc1 (centres unmarked) [Example 49, 4-(5-(2,2-dimethyl-3-oxo-1-phenyl-3-(1,3,4-thiadiazol-2-ylamino)propyl)-2-thienyl)-N,N-diethylbenzamide]
79.7 nM	CCCN(CCC)C(=O)c1ccc(-c2ccc(C(c3ccccc3)C(C)(C)C(=O)Nc3nncs3)s2)cc1 (centres unmarked) [Example 51, 4-(5-(2,2-dimethyl-3-oxo-1-phenyl-3-(1,3,4-thiadiazol-2-ylamino)propyl)-2-thienyl)-N,N-dipropylbenzamide]
29.2 nM	CN(C)C(=O)c1ccc(-c2ccc([C@@H](c3cccc(F)c3)C(C)(C)C(=O)Nc3nncs3)s2)cc1 [Example 58, 4-(5-((1S)-1-(3-fluorophenyl)-2,2-dimethyl-3-oxo-3-(1,3,4-thiadiazol-2-ylamino)propyl)-2-thienyl)-N,N-dimethylbenzamide]
87.6 nM	CCN(C)C(=O)c1ccc(-c2ccc([C@@H](c3cccc(F)c3)C(C)(C)C(=O)Nc3nncs3)s2)cc1 [Example 62, N-ethyl-4-(5-((1S)-1-(3-fluorophenyl)-2,2-dimethyl-3-oxo-3-(1,3,4-thiadiazol-2-ylamino)propyl)-2-thienyl)-N-methylbenzamide]
1.03 nM	CCN(CC)C(=O)c1ccc(-c2ccc([C@H](c3cccc(F)c3)C(C)(C)C(=O)Nc3nncs3)s2)cc1 [Example 69, N,N-diethyl-4-(5-((1R)-1-(3-fluorophenyl)-2,2-dimethyl-3-oxo-3-(1,3,4-thiadiazol-2-ylamino)propyl)-2-thienyl)benzamide]
29.8 nM	CCCN(CCC)C(=O)c1ccc(-c2ccc([C@H](c3cccc(F)c3)C(C)(C)C(=O)Nc3nncs3)s2)cc1 [Example 72, 4-(5-((1R)-1-(3-fluorophenyl)-2,2-dimethyl-3-oxo-3-(1,3,4-thiadiazol-2-ylamino)propyl)-2-thienyl)-N,N-dipropylbenzamide]
6.13 nM	CCNC(=O)c1ccc(-c2ccc([C@H](c3cccc(F)c3)C(C)(C)C(=O)Nc3nncs3)s2)cc1 [Example 73, N-ethyl-4-(5-((1R)-1-(3-fluorophenyl)-2,2-dimethyl-3-oxo-3-(1,3,4-thiadiazol-2-ylamino)propyl)-2-thienyl)benzamide]
1.52 nM	CNC(=O)c1ccc(-c2ccc([C@H](c3cccc(F)c3)C(C)(C)C(=O)Nc3nncs3)s2)cc1 [Example 75, 4-(5-((1R)-1-(3-fluorophenyl)-2,2-dimethyl-3-oxo-3-(1,3,4-thiadiazol-2-ylamino)propyl)-2-thienyl)-N-methylbenzamide]
